The numbers were not newly measured in patent US20260007780A1, “LIQUID VEHICLE FORMULATION FOR ENTEROGRAPHY EXAMINATION” (priority 2008, published 2026), which cites them from elsewhere.

With `CC(=O)Nc1c(I)c(NC(C)=O)c(I)c(C(=O)O)c1I` [Diatrizoic acid, diatrizoic acid], the solubility in water entry is given as “practically insoluble in water”.
